Read-outs that look alike come from different tables or passages of the source.
What was measured:
[1] = system: MCV-positive MCC cell lines (MKL-1, MKL-2, MS-1 and WaGa); assay: Cell-Titer Glo growth inhibition by YM155; format: cell-based, human; settings: 48 h
From the text: (§1) Seven Merkel cell carcinoma cell lines: MKL-1, MKL-2, MS-1, UISO, MCC13, MCC26 and WaGa (kind gift of Jurgen Becker (Houben et al., Merkel cell polyomavirus-infected Merkel cell carcinoma cells require expression of viral T antigens. J Virol 84, 7064 (July, 2010); Ronan et al., Merkel cell carcinoma: in vitro and in vivo characteristics of a new cell line. J Am Acad Dermatol 29, 715 (November, 1993); Rosen et al., Establishment and characterization of a neuroendocrine skin carcinoma cell line. Lab Invest 56, 302 (March, 1987)); NCI-H69 small cell lung cancer cell line (ATCC); 293 human embryonic kidney cells (ATCC); U2OS osteosarcoma cell line (kind gift of Ole Gjoerup); BJhTERT immortalized foreskin fibroblast cell line (kind gift of Ole Gjoerup); and BJ primary foreskin fibroblasts (ATCC) were used to screen and evaluate the small molecules examined in this study (Houben et al., J Virol 84, 7064 (July, 2010); Ronan et al., J Am Acad Dermatol 29, 715 (November, 1993); Rosen et al., Lab Invest 56, 302 (March, 1987)). […]
(§2) Serial drug dilutions from 10^−4 M to 10^−9 M were used on MCC and non-MCC cell lines. […] Cell viability was then measured using Cell Titer Glo (Promega) kit following manufacturer's instructions as described previously. […] EC50 doses for the drugs were calculated using a four parameter logistic equation (GraphPad Prism).

MKL-2 xenografts = assay: MKL-2 xenograft drug treatment; format: in vivo, NSG mice; settings: continuously at 4 mg/kg
Protocol: Cells of Merkel cell polyomavirus (+) carcinoma cell lines MKL-1, MS-1, WaGa, and MKL-2 were checked for viability >90% by trypan blue staining, resuspended in PBS (2×10^7 cells in 100 μl) and inoculated subcutaneously into the right flank of mice.

survivin = assay: qRT-PCR for survivin in xenograft tumor tissues; format: in vivo, mice; settings: 2 mg/kg vs saline
Protocol: Column represents mean and error bars represent standard deviation. Experiment was done in triplicate (Mean±SEM).
RNA was extracted from cell lysates using Trizol reagent (Invitrogen) and cDNA was synthesized using SuperScript III First Strand Synthesis (Invitrogen). Quantitative real-time PCR for survivin was performed on cDNA using the SYBR green method (based on manufacturer's protocol, Applied Biosystems). […] The relative change in expression was calculated using the Pffal method (Pfaffl, A new mathematical model for relative quantification in real-time RT-PCR. Nucleic Acids Research 29, e45 (May 1, 2001)). Experiments were repeated six times (2 biological repeats with 3 technical replicates each).

[2] = system: MCV-negative MCC13, BJ and BJhTERT cells; assay: Cell-Titer Glo growth curves for YM155; format: cell-based, human; settings: 48 h
From the text: as §1, §2

[3] = system: MCV-negative UISO and MCC26; assay: Cell-Titer Glo growth curves for YM155; format: cell-based, human; settings: 48 h
From the text: as §1, §2

MKL-1 cells [4] = assay: Cell death evaluation by CFDA and PI staining; format: cell-based, human; settings: 100 nM
Protocol: Upon harvesting cells are resuspended in 2 ml of PBS containing 4 μg/ml PI (propidium iodide, Sigma) and 10 μM Carboxy fluorescin diacetate (CFDA, Invitrogen) at room temperature for 10 mins. Cells were then rinsed in 1× PBS and then examined under the microscope. Quantitation was done using ImageJ software.

MKL-1 cells [5] = assay: Cell cycle analysis (PI and BrdU staining); format: cell-based, human; settings: 12 h, YM155 100 nM, camptothecin 1 μM
Protocol: MKL-1 cells were treated with Accutase (Millipore) to break clumps and then resuspended in fresh medium containing drug and treated for 12 hours. Three hours before harvest 10 μM Bromodeoxyuridine (BrdU) was added. Cells were then harvested and fixed in chilled 70% ethanol and left overnight. The next day cells were washed, resuspended in 200 μl of 2M HCl/Triton X (1%) and incubated for 30 mins at room temperature. Cells were then centrifuged at 2000 rpm for 10 mins and neutralized in 200 μl of 0.1M sodium tetraborate, pH 8.5 solution. Cells were then washed, suspended in 20 μl of PBS containing 0.5% tween20, 1% donkey serum and 2ul of anti-BrdU antibody (1:10 diution, BD Biosciences) and incubated overnight at 4° C. Cells were then washed and incubated with secondary antibody-anti mouse Alexa488 (1:1000) for 1 hour at room temperature. Cells were finally washed, suspended in PBS containing 100 μg/ml of RNase A, 50 μg/ml of PI (propidium iodide) and 0.05% Triton X and incubated for 30 mins at 37° C. in the dark. The cells were then subjected to FACS using the accuri C6 flow cytometer (UPCI shared resources).

MKL-1 cells [6] = assay: Trypan blue dye exclusion assay; settings: for viability at 0.1 µM: Homo sapiens
Protocol: Cells were equally seeded and treated with YM155 for 48 hours. To count blue stained dead cells, cells were treated with Accutase (Millipore), collected, resuspended in PBS, mixed with equal volume of Trypan blue (Lonza, 0.4%) and counted using a hemocytometer under the microscope. The counts were done in triplicate and the experiment was repeated three times.
MKL-1 cells were co-stained with CFDA (green, live) and PI (red, dead). In FIG. 4D, column graphs represent mean and range quantitations (using ImageJ) of % CFDA positive and % PI positive cells.

[7] = system: MS-1 (MCV-positive) and UISO (MCV-negative) cell xenografts; assay: MS-1 and UISO xenograft drug treatment; format: in vivo, NSG mice; settings: end of three week treatment period; MS-1 and UISO xenografts
Protocol: MCC cells were checked for viability >90% by trypan blue staining, resuspended in PBS (2×10^7 cells in 100 μl) and inoculated subcutaneously into the right flank of mice.
All treatments were delivered for three consecutive weeks. […] YM-155 (2 mg/kg) was given intraperitoneally on five consecutive days, followed by a two-day treatment free interval.

## COCCn1c2c([n+](Cc3cnccn3)c1C)C(=O)c1ccccc1C2=O.[Br-] [YM155, 1-(2-methoxyethyl)-2-methyl-4,9-dioxo-3-(pyrazin-2-ylmethyl)-4,9-dihydro-1H-naphtho[2,3-d]imidazol-3-ium bromide]
[1]; MKL-1, MKL-2, MS-1 and WaGa
  sensitivity to YM155, dose-dependent growth curves: sensitive
[1]; Homo sapiens, MKL-1, range over MCV-positive MCC cell lines, Cell-Titer Glo, read-out: EC50, inhibiting MCV-positive MCC cell growth in vitro
  EC50: 1.34 to 12.2 nM
MKL-2 xenografts
  animals surviving, of 10: three survived more than four months
survivin
  survivin levels in xenograft tumors (qRT-PCR): Lower survivin levels
[2]
  sensitivity to YM155, dose-dependent growth curves: relative resistance
[3]
  sensitivity to YM155, dose-dependent growth curves: intermediate sensitivity
MKL-1 cells [4]
  time to initiation of programmed cell death (PI positive, CFDA negative): 12 to 24 h
MKL-1 cells [5]
  BrdU incorporation: ablates BrdU incorporation in all phases of the cell cycle
MKL-1 cells [6]; 48 h, MKL-1
  cell killing, trypan blue vital dye exclusion: dose-dependent cell killing
MKL-1 cells [6]; MKL-1, read-out: cells remaining viable at 48 hours, 100 nM for 3 hours, followed by wash out
  viability at 0.1 µM: 51%
MKL-1 cells [6]; MKL-1, read-out: cells remaining viable at 48 hours, 100 nM for 6 hours, followed by wash out
  viability at 0.1 µM: 3%
MKL-1 cells [6]; MKL-1, read-out: cells remaining viable at 48 hours, 100 nM for 12 hours, followed by wash out
  viability at 0.1 µM: 1.8%
[7]
  final tumor volumes, % (median) of saline-treated control mice: 43-55%
